Experimental findings from ChEMBL document CHEMBL1147767, “Synthesis and biological evaluation of biphenylsulfonamide carboxylate aggrecanase-1 inhibitors” (Bioorg Med Chem Lett, 2006) are described below.

Activity calls are given as the source filed them.

The target of data set [1] is T1, A disintegrin and metalloproteinase with thrombospondin motifs 4 (Homo sapiens, UniProt O75173).
T1 sequence (O75173 whole entry): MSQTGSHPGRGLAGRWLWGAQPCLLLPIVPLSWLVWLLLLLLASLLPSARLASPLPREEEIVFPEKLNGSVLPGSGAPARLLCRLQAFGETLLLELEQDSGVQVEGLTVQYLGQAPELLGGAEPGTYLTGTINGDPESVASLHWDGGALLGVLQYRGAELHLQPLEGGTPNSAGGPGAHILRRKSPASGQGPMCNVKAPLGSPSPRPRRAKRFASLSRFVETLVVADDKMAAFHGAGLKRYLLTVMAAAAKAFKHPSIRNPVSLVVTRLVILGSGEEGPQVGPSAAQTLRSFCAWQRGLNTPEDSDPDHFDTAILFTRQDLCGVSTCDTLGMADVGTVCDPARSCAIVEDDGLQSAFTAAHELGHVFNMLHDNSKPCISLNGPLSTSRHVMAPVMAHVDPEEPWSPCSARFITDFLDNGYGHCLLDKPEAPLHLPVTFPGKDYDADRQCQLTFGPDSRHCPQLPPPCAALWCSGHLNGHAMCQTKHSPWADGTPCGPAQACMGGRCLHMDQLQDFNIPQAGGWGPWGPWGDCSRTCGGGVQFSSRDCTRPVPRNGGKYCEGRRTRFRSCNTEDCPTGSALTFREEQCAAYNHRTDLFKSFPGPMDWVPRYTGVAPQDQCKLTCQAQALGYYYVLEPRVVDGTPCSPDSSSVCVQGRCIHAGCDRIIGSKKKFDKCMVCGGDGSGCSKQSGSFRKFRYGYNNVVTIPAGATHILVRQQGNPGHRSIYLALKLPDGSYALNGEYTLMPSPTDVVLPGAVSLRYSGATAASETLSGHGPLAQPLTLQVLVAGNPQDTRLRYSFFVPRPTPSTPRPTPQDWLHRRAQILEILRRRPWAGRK

For data set [2], the target named is T2, A disintegrin and metalloproteinase with thrombospondin motifs 4 (Homo sapiens) (UniProt O75173).
T2 sequence (whole entry): T1 sequence (O75173 whole entry)
Description: Inhibitory activity against human Aggrecanase 1.

The target in data set [3] is 72 kDa type IV collagenase (Homo sapiens, UniProt P08253). Description: Inhibitory activity against MMP2.
72 kDa type IV collagenase, sequence (P08253 whole entry): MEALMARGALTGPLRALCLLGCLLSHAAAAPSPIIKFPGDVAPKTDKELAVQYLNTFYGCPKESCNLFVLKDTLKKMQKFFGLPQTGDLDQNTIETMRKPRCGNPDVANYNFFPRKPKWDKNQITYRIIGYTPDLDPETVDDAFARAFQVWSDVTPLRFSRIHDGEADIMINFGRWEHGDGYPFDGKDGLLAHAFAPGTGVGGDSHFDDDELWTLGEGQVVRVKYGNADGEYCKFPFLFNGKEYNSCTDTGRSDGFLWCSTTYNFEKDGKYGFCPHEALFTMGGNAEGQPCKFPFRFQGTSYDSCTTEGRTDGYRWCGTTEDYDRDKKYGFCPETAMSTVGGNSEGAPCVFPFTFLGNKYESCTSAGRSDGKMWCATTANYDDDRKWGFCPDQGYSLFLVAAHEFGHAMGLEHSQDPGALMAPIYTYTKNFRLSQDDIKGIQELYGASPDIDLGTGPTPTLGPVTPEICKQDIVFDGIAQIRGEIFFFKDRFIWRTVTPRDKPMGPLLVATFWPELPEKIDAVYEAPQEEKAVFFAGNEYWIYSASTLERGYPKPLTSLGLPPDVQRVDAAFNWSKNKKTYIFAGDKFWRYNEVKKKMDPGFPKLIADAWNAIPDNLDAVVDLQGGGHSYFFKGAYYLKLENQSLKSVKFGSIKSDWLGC
Data set [4] is described as follows: Half life in male Sprague-Dawley rats. The class given is ADME, organism-based. The conditions noted are these: rat, in vivo.
A short description of data set [5]: Oral bioavailability in male Sprague-Dawley rats. The class given is ADME, organism-based. The note with it: rat, in vivo.
A short description of data set [6]: Cmax in male Sprague-Dawley rats. The class given is ADME, organism-based. The note with it: rat, in vivo.
Data set [7] deals with T3, A disintegrin and metalloproteinase with thrombospondin motifs 4 (Bos taurus) (UniProt Q9TT93).
T3 sequence (whole entry): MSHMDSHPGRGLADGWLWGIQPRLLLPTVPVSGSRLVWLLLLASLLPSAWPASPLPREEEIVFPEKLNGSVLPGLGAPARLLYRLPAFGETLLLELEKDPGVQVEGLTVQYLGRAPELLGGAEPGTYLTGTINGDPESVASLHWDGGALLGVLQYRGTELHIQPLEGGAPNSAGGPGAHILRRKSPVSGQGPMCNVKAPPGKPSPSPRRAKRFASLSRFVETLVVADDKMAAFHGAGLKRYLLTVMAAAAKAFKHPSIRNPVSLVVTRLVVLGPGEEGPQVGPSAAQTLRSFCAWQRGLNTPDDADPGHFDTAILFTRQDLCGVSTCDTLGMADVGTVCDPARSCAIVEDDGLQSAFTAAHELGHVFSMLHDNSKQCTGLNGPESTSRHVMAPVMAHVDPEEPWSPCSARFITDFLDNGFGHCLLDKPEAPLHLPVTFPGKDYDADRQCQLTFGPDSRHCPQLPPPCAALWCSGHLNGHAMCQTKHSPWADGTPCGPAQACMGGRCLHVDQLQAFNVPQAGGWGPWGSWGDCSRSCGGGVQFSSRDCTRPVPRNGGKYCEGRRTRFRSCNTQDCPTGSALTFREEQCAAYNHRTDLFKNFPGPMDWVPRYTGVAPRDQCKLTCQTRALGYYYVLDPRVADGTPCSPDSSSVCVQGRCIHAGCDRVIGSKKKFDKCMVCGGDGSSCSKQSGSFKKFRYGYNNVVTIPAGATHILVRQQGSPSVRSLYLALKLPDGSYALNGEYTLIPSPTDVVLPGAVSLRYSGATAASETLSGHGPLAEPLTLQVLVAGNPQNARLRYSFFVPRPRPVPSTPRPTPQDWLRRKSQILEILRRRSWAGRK
Description: Inhibition of IL1induced proteoglycan degradation in bovine cartilage, 3 day incubation at 10 ug/mL. The class given is functional.

The target of data set [8] is Matrix metalloproteinase-14 (Homo sapiens, UniProt P50281). Description: Inhibitory activity against MMP14.
The target of data set [9] is T4, Interstitial collagenase (Homo sapiens, UniProt P03956).
T4 sequence (P03956 whole entry): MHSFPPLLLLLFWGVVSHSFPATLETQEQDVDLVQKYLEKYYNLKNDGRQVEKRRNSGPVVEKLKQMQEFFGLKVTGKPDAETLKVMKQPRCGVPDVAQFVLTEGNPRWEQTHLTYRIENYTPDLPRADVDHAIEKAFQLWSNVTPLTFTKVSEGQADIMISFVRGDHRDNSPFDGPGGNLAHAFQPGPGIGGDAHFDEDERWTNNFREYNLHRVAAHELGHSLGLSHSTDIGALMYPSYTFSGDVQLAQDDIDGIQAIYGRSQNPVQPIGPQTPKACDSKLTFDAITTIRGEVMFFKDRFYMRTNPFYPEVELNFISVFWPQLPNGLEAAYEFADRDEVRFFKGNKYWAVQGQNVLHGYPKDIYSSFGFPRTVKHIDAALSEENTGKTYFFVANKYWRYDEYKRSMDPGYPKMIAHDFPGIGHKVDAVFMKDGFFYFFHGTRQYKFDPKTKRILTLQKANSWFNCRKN
Description: Inhibitory activity against MMP1.

In data set [10] the target is Collagenase 3 (Homo sapiens, UniProt P45452).
Data set [11] is described as follows: Clearance in male Sprague-Dawley rats. The note with it: rat, in vivo. The class given is ADME, organism-based.

`CC(C)[C@@H](NS(=O)(=O)c1ccc(-c2ccccc2)c(N)c1)C(=O)O`: 30 µM corresponded to half-maximal inhibition in data set [1] (IC50). For `CC(C)[C@H](C(=O)O)N(C)S(=O)(=O)c1ccc(-c2ccccc2)cc1`, half-maximal inhibition in data set [1] (IC50) required 1.6 µM. Regarding `Cc1c(C(=O)Oc2ccc(-c3ccc(S(=O)(=O)N[C@@H](C(=O)O)C(C)C)cc3)cc2)oc2ccccc12`, the IC50 (in general, the point on the concentration scale where inhibition reaches its midpoint) in data set [1] turned out to be 0.086 µM. Compared with the last molecule, the IC50 is about 19-fold lower. In [1], `CC(C)[C@@H](NS(=O)(=O)c1ccc(-c2ccc(OCc3cc4ccccc4o3)cc2)cc1)C(=O)O` showed an IC50 of 1.4 µM. `CC(C)[C@@H](NS(=O)(=O)c1ccc(-c2ccc(OC(=O)c3cc4ccccc4o3)cc2)cc1)C(=O)O`: the IC50 in data set [1] came out at 0.35 µM. With `O=C(O)[C@@H](Cc1cc2ccccc2[nH]1)NS(=O)(=O)c1ccc(-c2ccccc2)cc1`, it took 2.8 µM to reach half-maximal inhibition in [1] (IC50). `CC(C)[C@@H](NS(=O)(=O)c1ccc(-c2ccccc2O)cc1)C(=O)O` gave a half-inhibitory concentration (IC50) in [1] of 20 µM. For the molecule `CC(C)C(CC(=O)O)NS(=O)(=O)c1ccc(-c2ccccc2)cc1` (stereo unspecified), in data set [1], the IC50 came out at 100 µM. On to `COc1ccc(S(=O)(=O)N(Cc2cccnc2)C(C(=O)NO)C(C)C)cc1` (single isomer, unassigned), for which the inhibition (commonly how much of the control response was suppressed) in [2] was “inactive”. As for `CC(C)[C@@H](NS(=O)(=O)c1ccc(-c2ccc(/C=C/c3cc4ccccc4o3)cc2)cc1)C(=O)O`, it took 0.4 µM to reach half-maximal inhibition in [1] (IC50). Turning to `CC(C)[C@@H](NS(=O)(=O)c1cccc(-c2ccccc2)c1)C(=O)O`, the IC50 in data set [1] is > 100 µM. The same measure, in the same setting: the value for `O=C(O)[C@@H](Cc1ccccc1)NS(=O)(=O)c1ccc(-c2ccccc2)cc1` was 4.3 µM; that for `CC(C)[C@@H](NS(=O)(=O)c1ccc(-c2ccc(NC(=O)c3cc4ccccc4o3)cc2)cc1)C(=O)O` was 7.5 µM. `CC(C)[C@@H](NS(=O)(=O)c1ccc(-c2ccc(CC(=O)c3cc4ccccc4o3)cc2)cc1)C(=O)O` registered a half-maximal inhibitory concentration (IC50) in data set [1] of 3.8 µM. Regarding `Cc1c(COc2ccc(-c3ccc(S(=O)(=O)N[C@H](Cc4ccccc4)C(=O)O)cc3)cc2)oc2ccccc12`, the IC50 is 0.028 µM in [3]; 0.7 µM in data set [1]; 3 µM in data set [8]; > 100 µM in data set [9]; 0.0044 µM in data set [10]. Besides, the half-life (usually the time needed for the level to fall by half in the phase considered) in data set [4] amounted to 4.62 h. Besides, in data set [5], the bioavailability (as a rule, dose-corrected exposure relative to a reference, in per cent) was 35%. In addition, the peak level in [6] (Cmax) was 1360 ng/mL. Further, in data set [7], the inhibition worked out at 89%. The clearance (in general, a measure of how efficiently the substance is removed, as volume per time) in data set [11] was determined as 16.1 mL/min/kg. In the case of `O=C(O)CC[C@@H](NS(=O)(=O)c1ccc(-c2ccccc2)cc1)C(=O)O`, in [1], half-maximal inhibition (IC50) was put at 1.1 µM. On to `CC(C)[C@@H](NS(=O)(=O)c1ccc(-c2ccccc2)cc1)C(=O)O`, for which the IC50 in [1] amounted to 3 µM.

For the molecule `COc1ccc(S(=O)(=O)N(Cc2cccnc2)[C@@H](C(=O)NO)C(C)C)cc1`, the inhibition in data set [2] (concentration not given here) is 92%. As to `C[C@@H](NS(=O)(=O)c1ccc(-c2ccccc2)cc1)C(=O)O`, the IC50 in data set [1] stood at 5.5 µM. `CC(C)[C@@H](NS(=O)(=O)c1ccc(-c2ccccc2[N+](=O)[O-])cc1)C(=O)O` registered an IC50 in data set [1] of 50 µM.

`CC(C)[C@H](C(=O)O)N(Cc1cccnc1)S(=O)(=O)c1ccc(-c2ccccc2)cc1` gave an IC50 in [1] of 12 µM. For the molecule `CC(C)[C@H](NS(=O)(=O)c1ccc(-c2ccccc2)cc1)C(=O)O`, in [1], the IC50 was > 100 µM.
